The values that follow come from ChEMBL document CHEMBL1144234, “Novel design principle validated: glucopyranosylidene-spiro-oxathiazole as new nanomolar inhibitor of glycogen phosphorylase, potential antidiabetic agent” (Bioorg Med Chem Lett, 2008).

The assay has as its target T1, Glycogen phosphorylase, muscle form (Oryctolagus cuniculus, UniProt P00489).
T1 sequence (P00489 whole entry): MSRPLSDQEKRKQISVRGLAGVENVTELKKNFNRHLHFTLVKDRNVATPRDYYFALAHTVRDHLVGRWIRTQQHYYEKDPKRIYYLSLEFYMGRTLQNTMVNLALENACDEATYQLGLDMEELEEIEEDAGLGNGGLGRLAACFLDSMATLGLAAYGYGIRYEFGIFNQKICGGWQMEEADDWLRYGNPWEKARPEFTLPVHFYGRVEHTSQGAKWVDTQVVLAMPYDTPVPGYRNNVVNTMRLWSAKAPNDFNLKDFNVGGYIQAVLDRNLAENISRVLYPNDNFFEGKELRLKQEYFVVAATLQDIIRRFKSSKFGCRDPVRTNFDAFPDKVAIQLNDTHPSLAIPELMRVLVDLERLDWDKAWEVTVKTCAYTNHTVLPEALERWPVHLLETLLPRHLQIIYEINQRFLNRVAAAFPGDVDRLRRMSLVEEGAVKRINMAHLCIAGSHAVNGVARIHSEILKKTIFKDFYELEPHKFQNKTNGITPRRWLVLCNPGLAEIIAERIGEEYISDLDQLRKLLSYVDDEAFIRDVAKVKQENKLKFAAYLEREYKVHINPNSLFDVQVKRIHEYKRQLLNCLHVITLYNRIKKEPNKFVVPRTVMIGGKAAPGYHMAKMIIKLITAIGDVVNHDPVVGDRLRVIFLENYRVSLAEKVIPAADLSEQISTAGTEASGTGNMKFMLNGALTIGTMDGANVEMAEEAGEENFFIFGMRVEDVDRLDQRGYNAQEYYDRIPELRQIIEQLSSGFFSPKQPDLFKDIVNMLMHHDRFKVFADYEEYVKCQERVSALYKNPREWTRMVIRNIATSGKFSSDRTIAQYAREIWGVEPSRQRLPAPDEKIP
Description: Inhibition of rabbit muscle glycogen phosphorylase b
For orientation: Ki means the equilibrium dissociation constant of an inhibitor or competing ligand from its target. `CC(=O)NC(=O)N[C@@H]1O[C@H](CO)[C@@H](O)[C@H](O)[C@H]1O` yielded a Ki of 305 µM. `O=C(N[C@@H]1O[C@H](CO)[C@@H](O)[C@H](O)[C@H]1O)c1cccc2ccccc12` registered a Ki of 444 µM. The compound `OC[C@H]1O[C@]2(ON=C(c3ccc(F)cc3)S2)[C@H](O)[C@@H](O)[C@@H]1O` returned a Ki of 28 µM. As for `O=C(NC(=O)c1cccc2ccccc12)N[C@@H]1O[C@H](CO)[C@@H](O)[C@H](O)[C@H]1O`, the figure is 5 µM; as for `O=C(NC(=O)c1ccc2ccccc2c1)N[C@@H]1O[C@H](CO)[C@@H](O)[C@H](O)[C@H]1O`, 0.35 µM. Then `OC[C@H]1O[C@]2(ON=C(c3ccccc3)S2)[C@H](O)[C@@H](O)[C@@H]1O`, with 26 µM. Consider `COc1ccc(C2=NO[C@]3(O[C@H](CO)[C@@H](O)[C@H](O)[C@H]3O)S2)cc1`, for which the Ki came to 8 µM. As for `O=C(NC1O[C@H](CO)[C@@H](O)[C@H](O)[C@H]1O)c1ccccc1` (single isomer, unassigned), the figure is 81 µM; as for `CC(=O)NC1O[C@H](CO)[C@@H](O)[C@H](O)[C@H]1O` (single isomer, unassigned), 32 µM.
